Data on 2 compounds can be found in patent US7951359B2, “Compositions and methods for therapy or prevention of chemotherapy-induced neuropathy” (Merck Serono SA, priority 2004, dated 2011).

For data set [1], the system named is human WiDr colon carcinoma. As to the kind of experiment: Human WiDr colon carcinoma tumor growth in nude mice. It is filed as in vivo, mouse. Here is the method: The following experiment was carried out to check potential drug interaction between IL-6 and the chemotherapeutic agent in vivo.
Balb/c nude mice are used since have proven to be susceptible host systems for the growth of human WiDr colon carcinoma tumor cells. WiDr cells were provided by the bank of the National Cancer Research Institute Genova-Italy. Cell species: human, tissue: colon, tumor: colon adenocarcinoma, accession number: ICLC HTL00003.
Tumor size was recorded twice a week for 4 weeks starting 4 days after cell inoculation.
Each Balb/c nude mice (about 20-25 g body weight) was inoculated subcutaneously (s.c.) with 10^7+5% WiDr cells/mouse (0.2 mL/mouse of cell suspension) on day 1.
A group administered with 0.02% mouse albumin (Sigma) in 40 mM phosphate buffer at pH=7.0, s.c., a group administered with 3.5 mg/kg Cis-platinum, i.p. (in 0.9% NaCl sterile solution for injection), three groups of rats each treated with IL-6 (in 0.02% mouse albumin in 40 mM phosphate buffer at pH=7.0), s.c. at 3, 10 or 30 μg/kg and three groups of rats treated with IL-6 either at 3, 10 or 30 μg/kg IL-6, s.c. in combination with cis-platinum 3.5 mg/kg, i.p.
IL-6 at […] was given s.c. daily (10 mL/kg) from day 4 up to day 18. […] Tumor size was recorded twice a week for 4 weeks starting 4 days after cell inoculation. […]

Data set [2] deals with cisplatin induced neuropathy. As to the kind of experiment: Hot plate test, therapeutic treatment of established cisplatin neuropathy. It is filed as in vivo, rat. Background: In hot-plate and tail-flick tests a longer latency is read as antinociception.
The test system of data set [3] is cisplatin induced neuropathy. As to the kind of experiment: Morphometric analysis, therapeutic treatment of established cisplatin neuropathy. It is filed as in vivo, rat. The conditions noted are these: for proportion of degenerated fibers versus control: p≦0.05. An excerpt: The number of degenerated and non-degenerated fibers on the entire surface of each nerve section was counted by an operator in a blinded fashion. All the results (except the data expressed as ratio value) were reported as percentage of changes in reference to the control value.

In data set [4] the test system is vincristine induced neuropathy. As to the kind of experiment: Hot plate test in vincristine-treated rats. It is filed as in vivo, rat. The method, then: The rat was placed inside a glass cylinder of 17 cm height and 21 cm diameter on a heating-plate maintained at 52° C. (Medite OTS 40, Microm, Francheville, Rhône, France). The animal behavior was observed, particularly the licking of a foot and the adjusted leap. The latency before licking a foot or before jumping to escape the heat (adjusted leap) was recorded. The time needed to feel the thermal pain is related to the thermal sensitivity and tends to increase when thermal sensitivity is altered.

Data set [5] has as its system vincristine induced neuropathy. As to the kind of experiment: Electromyography (EMG) in vincristine-treated rats. It is filed as in vivo, rat. Here is the method: In parallel to behavioral tests, electrophysiological test as described in Example 17, were carried out to evaluate fiber/nerve function in vincristine-administered rats vis-à-vis rats co-administrated with IL-6.
Electrophysiological recordings were performed using a Neuromatic 2000M electromyograph (EMG) (Dantec, Les Ulis, France). Rats were anaesthetized by IP injection of 60 mg/kg ketamine chlorhydrate (Imalgene 500®, Rhône Merieux, Lyon, France). The normal body temperature was maintained around […] with a heating lamp and verified using a contact thermometer (Quick, Bioblock Scientific, Illkirch, France) placed on the tail surface.
Compound muscle action potential (CMAP) of M wave signal (or electrically evoked muscle potential) was recorded in the gastrocnemius muscle after stimulation of the sciatic nerve. M wave reflects the current developed during the action potential of muscle fibers. A reference electrode and an active needle were placed in the hind paw. A ground needle was inserted on the lower back of the rat. Sciatic nerve was stimulated with a single 0.2 ms pulse at supramaximal intensity. The […] of the motor wave was recorded and expressed in ms.
(§1) Sensitive nerve conduction velocity (SNCV) was also recorded. The tail skin electrodes were placed as follows: a reference needle inserted at the base of the tail and an anode needle placed 30 mm away from the reference needle toward the extremity of the tail. A ground needle electrode was inserted between the anode and reference needles. The caudal nerve was stimulated with a series of 20 pulses (for 0.2 ms) at an intensity of 12.8 mA. The velocity was expressed in m/s.
H-wave reflex was recorded in the hind footpad muscle after stimulation of the sciatic nerve. A reference electrode and a ground needle were placed on the lower back of the rat. The sciatic nerve was stimulated with a single 0.2 ms pulse at supramaximal intensity. The amplitude (mV) of H wave and the proportion of animal lacking H wave response were the parameters studied.

A further data set has as its system taxol induced neuropathy. As to the kind of experiment: Electrophysiological monitoring in taxol induced neuropathy, co-administration. It is filed as in vivo, rat. The method, then: The aim of the following experiment was to investigate the potential neuroprotective effect of IL6 in an additional model of chemotherapeutic induced neuropathy mediated by taxol. The potential preventive effect of IL-6 co-administration was tested. Administration of IL-6 was initiated together with taxol administration. The doses of IL-6 of 3 and 10 μg/kg were administered daily or in the case 10 μg/kg also only 3 times per week.
Females 10 weeks old aged Dark Agouti rats were used, 12 animals per group were included as following
The taxol was diluted in a solution of cremophor/ethanol/dextrose 5% and administered twice a week during 4 weeks.
4-MC and test compounds treatment was initiated the first day of intoxication and was stopped at the end of the study.
The study was performed on 8 weeks (1 week for the baseline, 4 weeks for the taxol intoxication and 3 weeks of recovery).
Control, taxol, and taxol-IL-6 co-administered group of rats at the indicated doses were subjected to electrophysiological monitoring to assess the effect of IL-6 in taxol-induced loss of fiber/nerve function.
as §1
H-wave reflex was recorded in the hind footpad muscle after stimulation of the sciatic nerve. […] The sciatic nerve was stimulated with a single 0.2 ms pulse at supramaximal intensity. The amplitude (mV) of H wave and the proportion of animal lacking H wave response were the parameters studied.

Where [6] appears, read: cisplatin alone, 3 weeks after cessation of cisplatin.

Turning to `N.N.[Cl][Pt][Cl]` [cisplatin, Cis-dichlorodiamine platinum], in data set [1] (cisplatin 3.5 mg/kg i.p. days 4, 8, 12, 18, significant on days 18, 22, 25), the WiDr tumor growth entry is “reduce tumor growth”. The “hot plate first reaction to heat versus control” value in data set [2] (cisplatin alone, during and 3 weeks post-cisplatin) is given as “significant delayed first reaction to heat”. In addition, in data set [3] (setting [6]), the “proportion of non-degenerated myelinated fibers versus control” value is reported as “lower” and the “proportion of degenerated fibers versus control” value is “significantly higher”. For the same compound, in data set [3] (cisplatin alone, day 23), the “proportion of non-degenerated myelinated fibers versus control” value is “lower” and the “proportion of degenerated fibers versus control” value is on record as “significant greater proportion of degenerated fibers”. Besides, in data set [3] (cisplatin alone, day 44, p>0.05), the myelin area result is listed as “slight but not significant reduction”. In addition, the “overall size of myelin versus control” value in data set [3] (cisplatin alone, up to day 23, not significant (p>0.05)) is “slightly reduced”.

For “IL-6: Recombinant human IL-6 produced in genetically engineered Chinese Hamster Ovary (CHO) cells”, in data set [4] (IL-6 0.3, 1, 3, 10 μg/kg SC daily, 5 weeks), the “prevention of vincristine-induced nociception loss (hot plate)” value was “significantly prevented nociception”. The “protection from vincristine-induced nociception loss compared with 4-MC” value in data set [4] (IL-6 0.3-10 μg/kg SC vs 4-MC 10 μg/kg IP) was “confers better protection that 4-MC”. Besides, in data set [5] (IL-6 10 μg/kg SC daily with vincristine), the CMAP latency time result is recorded as “fully preserved their CMAP latency time”. The “vincristine-induced CMAP latency” value in data set [5] (IL-6 0.3-10 μg/kg SC daily, p<0.05) is recorded as “reduced”. For the same compound, the “SNCV in vincristine treated animals” value in data set [5] (IL-6 1-10 μg/kg SC daily) is recorded as “full restoration of SNCV”. Besides, in data set [5] (IL-6 1-10 μg/kg SC daily with vincristine), the “H wave amplitude preservation” value is given as “fully preserved the H wave amplitude”. Besides, the “protection against loss of M wave amplitude, duration” value in data set [5] (IL-6 3-10 μg/kg SC daily with vincristine) is “stable throughout the experiment”. Also, in data set [5] (IL-6 all doses tested (0.3-10 μg/kg SC daily)), the “prevention of vincristine-induced loss of M wave amplitude” value is “prevent vincristine-induced loss of M wave amplitude”. Also, in data set [5] (IL-6 vs 4-MC 10 μg/kg IP), the “protection against vincristine-induced fiber/nerve function loss compared with 4-MC” value is “confers better protection that 4-MC”. In the data set on taxol induced neuropathy (IL-6 3 or 10 μg/kg daily or 10 μg/kg 3 times per week, sc), the “H wave latency under taxol” value was “prevent/reduce H wave latency”. Moreover, in the data set with taxol induced neuropathy (IL-6 3 or 10 μg/kg daily or 3 times per week), the “alterations in SNCV by taxol” value is recorded as “prevent alterations in SNCV”. For the same compound, the “reduction in H wave amplitude by taxol” value with taxol induced neuropathy (IL-6 at all the dosages tested, throughout the experiment) was “significantly prevented the reduction in H wave amplitude”. Also, the “preventive effects compared with 4-MC co-administration” value in the data set with taxol induced neuropathy (IL-6 vs 4-MC) is reported as “more significant than those of 4-MC co-administration”. For the same compound, in data set [1] (IL-6 alone 3, 10 and 30 μg/kg s.c. daily day 4 to 18), the WiDr tumor growth entry is “did not significantly affect the growth of the tumor”. For the same compound, the “time of the first reaction to heat, significance” value in data set [2] (IL-6 10 μg/kg, 2 weeks after IL-6 treatment, p≦0.05) was “Significant results”. The “time of the first reaction to heat” value in data set [2] (IL-6 3 and 10 μg/kg SC daily from day 23, two weeks after initiation, p≦0.05) was “overall reduction in the time of the first reaction”. In data set [3] (IL-6 10 μg/kg), the “cisplatin-induced myelin sheath thinning” value is “appeared to reverse cisplatin-induced myelin sheath thinning” and the “percentage of degenerated fibers, significance” value was “significant effect”. Moreover, in data set [3] (IL-6 treatment), the large/small fibers ratio result is “slight increase”. Besides, the “percentage of degenerated fibers” value in data set [3] (IL-6 treatment (3 and 10 μg/kg)) is “significantly reduced the percentage of degenerated fibers”. For the same compound, in data set [3] (IL-6 vs 4-MC), the “restoring myelin and fiber degeneration compared with 4-MC” value was “more efficient than 4-MC”.
